According to patent US20070179295A1, “Triazolopyrimidines” (priority 2003, published 2007):

Experiment: logP determination through HPLC (EEC directive 79/831 Annex V. A8, gradient method, acetonitrile/0.1% aqueous phosphoric acid)
Type: physicochemical
Details: for chromatographic logP: HPLC
[1] = Table 1, compounds of formula (I), HPLC gradient method, acetonitrile/0.1% aqueous phosphoric acid
[2] = Table 2, precursors of formula (II)
[3] = Table 3, precursors of formula (IV)

CC(C)C(C)Nc1c(-c2ncncc2F)c(Cl)nc2nc(C3CC3)nn12 (stereo not drawn) [Example 104]
logP [1]: 2.79

CC(Nc1c(-c2ncncc2F)c(Cl)nc2nc(C3CC3)nn12)C(F)(F)F (stereo not drawn) [Example 105]
logP [1]: 2.57

CC1CCN(c2c(-c3ncncc3F)c(Cl)nc3nc(C4CC4)nn23)CC1 [Example 106]
logP [1]: 3.02

Cc1nc2nc(Cl)c(-c3ncncc3F)c(NC(C)C(C)(C)C)n2n1 (stereo not drawn) [Example 107]
logP [1]: 2.54

Cc1nc2nc(Cl)c(-c3ncncc3F)c(NC(C)C(C)C)n2n1 (stereo not drawn) [Example 108]
logP [1]: 2.21

Cc1nc2nc(Cl)c(-c3ncncc3F)c(NC(C)C(F)(F)F)n2n1 (stereo not drawn) [Example 109]
logP [1]: 2.03

CC(C)c1nc2nc(Cl)c(-c3ncc(C(F)(F)F)cc3Cl)c(NC(C)C(F)(F)F)n2n1 (stereo not drawn) [Example 111]
logP [1]: 3.95

CC(C)c1nc2nc(Cl)c(-c3ncc(C(F)(F)F)cc3Cl)c(NC(C)C(C)C)n2n1 (stereo not drawn) [Example 112]
logP [1]: 4.32

FC(F)(F)c1cccnc1-c1c(Cl)nc2nc(C3CC3)nn2c1Cl [Example 114]
chromatographic logP: 2.73

Cc1nc2nc(Cl)c(-c3ncncc3Cl)c(Cl)n2n1 [Example 115, 5,7-dichloro-6-(5-chloro-4-pyrimidinyl)-2-methyl[1,2,4]-triazolo[1,5-a]pyrimidine]
chromatographic logP: 1.58

Clc1cncnc1-c1c(Cl)nc2nc(C3CC3)nn2c1Cl [Example 116]
logP [2]: 2.23

Cc1nc2nc(Cl)c(-c3cncnc3C(F)(F)F)c(Cl)n2n1 [Example 117]
logP [2]: 2.10

Clc1nc2nc(C3CC3)nn2c(Cl)c1-c1ccccn1 [Example 118]
logP [2]: 1.88

O=[N+]([O-])c1cccc(-c2c(Cl)nc3nc(C4CC4)nn3c2Cl)n1 [Example 119]
logP [2]: 2.91

Cc1nc2nc(Cl)c(-c3ncccc3[N+](=O)[O-])c(Cl)n2n1 [Example 120]
logP [2]: 1.68

Oc1nc2nc(C3CC3)nn2c(O)c1-c1ncccc1C(F)(F)F [Example 124, 6-(3-trifluoromethyl-pyridin-2-yl)-2-cyclopropyl[1,2,4]triazolo[1,5-a]-pyrimidin-5,7-diol]
chromatographic logP: 0.47

Cc1nc2nc(O)c(-c3ncccc3C(F)(F)F)c(O)n2n1 [Example 126]
logP [3]: −0.03

Oc1nc2nc(C3CC3)nn2c(O)c1-c1ncncc1Cl [Example 127]
logP [3]: −0.07
